Test results from PubChem BioAssay AID1963428 (Molecular Pharmacology Branch, DTP, NCI, 2024).

Tested on: 171881-019-R-J1-PDC complex spheroid growth, % test/control
Assay: Anticancer human tumor 171881-019-R-J1-PDC patient-derived invasive breast carcinoma cell line growth inhibition [Asc]
Conditions: for IC50: curve of first compound; for viability, T/C: stronger effect = lower value
Procedure, shortened: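 Tumor cells were grown as complex spheroids with human endothelial cells (HUVEC) and human mesenchymal stem cells as stroma. Agents were tested alone and in combination, in half-log steps down from the clinical Cmax, or from 10 microM where Cmax was unknown.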
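For viability, T/C in this document: spheroids exposed to compounds for 7 days.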

NC(=O)C(=Cn1cnc(-c2cc(C(F)(F)F)cc(C(F)(F)F)c2)n1)c1cncnc1 + CCN1C(C(=O)NC23CCC(C(=O)O)(CC2)CC3)C(c2cccc(Cl)c2F)C2(C(=O)Nc3cc(Cl)ccc32)C12CCCCC2
IC50 (second compound 0.03 µM): 34.5 nM
IC50 (second compound 0.0949 µM): 29.2 nM
IC50 (second compound 0.3 µM): 37.4 nM
IC50 (second compound 0.949 µM): 38.1 nM
IC50 (second compound 3 µM): 29.3 nM
viability, T/C (second compound 0.03 µM, first compound 0.000949 µM): 116%
viability, T/C (second compound 0.03 µM, first compound 0.003 µM): 103%
viability, T/C (second compound 0.03 µM, first compound 0.00949 µM): 93.8%
viability, T/C (second compound 0.03 µM, first compound 0.03 µM): 57.9%
viability, T/C (second compound 0.03 µM, first compound 0.0949 µM): 9.64%
viability, T/C (second compound 0.03 µM, first compound 0.3 µM): 3.28%
viability, T/C (second compound 0.0949 µM, first compound 0.000949 µM): 139%
viability, T/C (second compound 0.0949 µM, first compound 0.003 µM): 101%
viability, T/C (second compound 0.0949 µM, first compound 0.00949 µM): 100%
viability, T/C (second compound 0.0949 µM, first compound 0.03 µM): 48.6%
viability, T/C (second compound 0.0949 µM, first compound 0.0949 µM): 10.1%
viability, T/C (second compound 0.0949 µM, first compound 0.3 µM): 3.82%
viability, T/C (second compound 0.3 µM, first compound 0.000949 µM): 121%
viability, T/C (second compound 0.3 µM, first compound 0.003 µM): 118%
viability, T/C (second compound 0.3 µM, first compound 0.00949 µM): 108%
viability, T/C (second compound 0.3 µM, first compound 0.03 µM): 60.3%
viability, T/C (second compound 0.3 µM, first compound 0.0949 µM): 8.36%
viability, T/C (second compound 0.3 µM, first compound 0.3 µM): 2.76%
viability, T/C (second compound 0.949 µM, first compound 0.000949 µM): 126%
viability, T/C (second compound 0.949 µM, first compound 0.003 µM): 115%
viability, T/C (second compound 0.949 µM, first compound 0.00949 µM): 114%
viability, T/C (second compound 0.949 µM, first compound 0.03 µM): 61%
viability, T/C (second compound 0.949 µM, first compound 0.0949 µM): 8.13%
viability, T/C (second compound 0.949 µM, first compound 0.3 µM): 0.97%
viability, T/C (second compound 3 µM, first compound 0.000949 µM): 111%
viability, T/C (second compound 3 µM, first compound 0.003 µM): 117%
viability, T/C (second compound 3 µM, first compound 0.00949 µM): 105%
viability, T/C (second compound 3 µM, first compound 0.03 µM): 48.8%
viability, T/C (second compound 3 µM, first compound 0.0949 µM): 6.01%
viability, T/C (second compound 3 µM, first compound 0.3 µM): 1.16%

NC1CCC(NC2CC2c2ccccc2)CC1 (stereo not given) + CCN1C(C(=O)NC23CCC(C(=O)O)(CC2)CC3)C(c2cccc(Cl)c2F)C2(C(=O)Nc3cc(Cl)ccc32)C12CCCCC2
IC50 (second compound 0.03 µM): > 100 nM
IC50 (second compound 0.0949 µM): > 100 nM
IC50 (second compound 0.3 µM): > 100 nM
IC50 (second compound 0.949 µM): > 100 nM
IC50 (second compound 3 µM): > 100 nM
viability, T/C (second compound 0.03 µM, first compound 0.000316 µM): 123%
viability, T/C (second compound 0.03 µM, first compound 0.001 µM): 120%
viability, T/C (second compound 0.03 µM, first compound 0.00316 µM): 111%
viability, T/C (second compound 0.03 µM, first compound 0.01 µM): 106%
viability, T/C (second compound 0.03 µM, first compound 0.0316 µM): 110%
viability, T/C (second compound 0.03 µM, first compound 0.1 µM): 106%
viability, T/C (second compound 0.0949 µM, first compound 0.000316 µM): 112%
viability, T/C (second compound 0.0949 µM, first compound 0.001 µM): 94.4%
viability, T/C (second compound 0.0949 µM, first compound 0.00316 µM): 109%
viability, T/C (second compound 0.0949 µM, first compound 0.01 µM): 118%
viability, T/C (second compound 0.0949 µM, first compound 0.0316 µM): 113%
viability, T/C (second compound 0.0949 µM, first compound 0.1 µM): 103%
viability, T/C (second compound 0.3 µM, first compound 0.000316 µM): 112%
viability, T/C (second compound 0.3 µM, first compound 0.001 µM): 120%
viability, T/C (second compound 0.3 µM, first compound 0.00316 µM): 127%
viability, T/C (second compound 0.3 µM, first compound 0.01 µM): 107%
viability, T/C (second compound 0.3 µM, first compound 0.0316 µM): 125%
viability, T/C (second compound 0.3 µM, first compound 0.1 µM): 116%
viability, T/C (second compound 0.949 µM, first compound 0.000316 µM): 107%
viability, T/C (second compound 0.949 µM, first compound 0.001 µM): 114%
viability, T/C (second compound 0.949 µM, first compound 0.00316 µM): 110%
viability, T/C (second compound 0.949 µM, first compound 0.01 µM): 121%
viability, T/C (second compound 0.949 µM, first compound 0.0316 µM): 106%
viability, T/C (second compound 0.949 µM, first compound 0.1 µM): 115%
viability, T/C (second compound 3 µM, first compound 0.000316 µM): 102%
viability, T/C (second compound 3 µM, first compound 0.001 µM): 118%
viability, T/C (second compound 3 µM, first compound 0.00316 µM): 110%
viability, T/C (second compound 3 µM, first compound 0.01 µM): 109%
viability, T/C (second compound 3 µM, first compound 0.0316 µM): 110%
viability, T/C (second compound 3 µM, first compound 0.1 µM): 107%
